Laboratory results from ChEMBL document CHEMBL3860080, “Development of BCR-ABL degradation inducers via the conjugation of an imatinib derivative and a cIAP1 ligand” (Bioorg Med Chem Lett, 2016).
The source made the active and inactive calls. The rule behind the calls is not given here.

Columns and labels:
[1] = target: T1, Baculoviral IAP repeat-containing protein 2/Tyrosine-protein kinase ABL1/Breakpoint cluster region protein (Homo sapiens) (UniProt P00519+P11274+Q13490); experiment: Induction of cIAP1-mediated BCR-ABL protein degradation in human K562 cells assessed as BCR-ABL to beta-tubulin ratio at 30 uM after 24 hrs by Western blot analysis relative to control; assay type: cell-based
[2] = target: T1, Baculoviral IAP repeat-containing protein 2/Tyrosine-protein kinase ABL1/Breakpoint cluster region protein (Homo sapiens); experiment: Induction of cIAP1-mediated BCR-ABL protein degradation in human K562 cells assessed as BCR-ABL to beta-tubulin ratio at 100 uM after 24 hrs by Western blot analysis relative to control; assay type: cell-based
[3] = test system: K562; experiment: Cytotoxicity against human K562 cells assessed as cell growth inhibition at 30 to 100 uM after 24 hrs by cell counting kit-8 assay; assay type: functional, cell-based
[4] = target: T1, Baculoviral IAP repeat-containing protein 2/Tyrosine-protein kinase ABL1/Breakpoint cluster region protein (Homo sapiens); experiment: Induction of cIAP1-mediated BCR-ABL protein degradation in human K562 cells assessed as BCR-ABL to beta-tubulin ratio at 30 uM after 8 hrs by Western blot analysis relative to control; assay type: cell-based
[5] = target: T1, Baculoviral IAP repeat-containing protein 2/Tyrosine-protein kinase ABL1/Breakpoint cluster region protein (Homo sapiens); experiment: Induction of cIAP1-mediated BCR-ABL protein degradation in human K562 cells assessed as BCR-ABL to beta-tubulin ratio at 100 uM after 8 hrs by Western blot analysis relative to control; assay type: cell-based
[6] = Cytotoxicity against human K562 cells assessed as cell growth at 30 to 100 uM after 24 hrs by cell counting kit-8 assay relative to control; assay type: functional
[7] = target: T2, Bcr/Abl fusion protein (Homo sapiens) (UniProt P00519+P11274); experiment: Inhibition of BCR-ABL signaling pathway in human K562 cells assessed as suppression of STAT5 phosphorylation at 100 uM after 8 hrs in presence of imatinib by Western blot analysis; assay type: cell-based
[8] = target: T2, Bcr/Abl fusion protein (Homo sapiens); experiment: Inhibition of BCR-ABL signaling pathway in human K562 cells assessed as suppression of CrkL phosphorylation at 100 uM after 8 hrs in presence of imatinib by Western blot analysis; assay type: cell-based
[9] = Effect on BCR-ABL protein levels in human K562 cells assessed as BCR-ABL to beta-tubulin ratio at 100 uM after 8 hrs in presence of imatinib by Western blot analysis relative to control; assay type: ADME, cell-based; details: k562, 8 h
[10] = target: T2, Bcr/Abl fusion protein (Homo sapiens); experiment: Inhibition of BCR-ABL phosphorylation in human K562 cells at 100 uM after 8 hrs in presence of imatinib by Western blot analysis; assay type: cell-based
[11] = Effect on BCR-ABL protein levels in human K562 cells assessed as BCR-ABL to beta-tubulin ratio at 100 uM after 8 hrs by Western blot analysis relative to control; assay type: ADME, cell-based; details: k562, 8 h
[12] = target: T2, Bcr/Abl fusion protein (Homo sapiens); experiment: Inhibition of BCR-ABL signaling pathway in human K562 cells assessed as suppression of CrkL phosphorylation at 100 uM after 8 hrs by Western blot analysis; assay type: cell-based
[13] = target: T2, Bcr/Abl fusion protein (Homo sapiens); experiment: Inhibition of BCR-ABL phosphorylation in human K562 cells at 100 uM after 8 hrs by Western blot analysis; assay type: cell-based
[14] = target: T1, Baculoviral IAP repeat-containing protein 2/Tyrosine-protein kinase ABL1/Breakpoint cluster region protein (Homo sapiens); experiment: Induction of cIAP1-mediated BCR-ABL protein degradation in human K562 cells after 8 hrs by Western blot analysis; assay type: cell-based
[15] = target: T2, Bcr/Abl fusion protein (Homo sapiens); experiment: Inhibition of BCR-ABL signaling pathway in human K562 cells assessed as suppression of STAT5 phosphorylation at 100 uM after 8 hrs by Western blot analysis; assay type: cell-based

T2 sequence (P00519 whole entry, looked up, the tested form may be a part): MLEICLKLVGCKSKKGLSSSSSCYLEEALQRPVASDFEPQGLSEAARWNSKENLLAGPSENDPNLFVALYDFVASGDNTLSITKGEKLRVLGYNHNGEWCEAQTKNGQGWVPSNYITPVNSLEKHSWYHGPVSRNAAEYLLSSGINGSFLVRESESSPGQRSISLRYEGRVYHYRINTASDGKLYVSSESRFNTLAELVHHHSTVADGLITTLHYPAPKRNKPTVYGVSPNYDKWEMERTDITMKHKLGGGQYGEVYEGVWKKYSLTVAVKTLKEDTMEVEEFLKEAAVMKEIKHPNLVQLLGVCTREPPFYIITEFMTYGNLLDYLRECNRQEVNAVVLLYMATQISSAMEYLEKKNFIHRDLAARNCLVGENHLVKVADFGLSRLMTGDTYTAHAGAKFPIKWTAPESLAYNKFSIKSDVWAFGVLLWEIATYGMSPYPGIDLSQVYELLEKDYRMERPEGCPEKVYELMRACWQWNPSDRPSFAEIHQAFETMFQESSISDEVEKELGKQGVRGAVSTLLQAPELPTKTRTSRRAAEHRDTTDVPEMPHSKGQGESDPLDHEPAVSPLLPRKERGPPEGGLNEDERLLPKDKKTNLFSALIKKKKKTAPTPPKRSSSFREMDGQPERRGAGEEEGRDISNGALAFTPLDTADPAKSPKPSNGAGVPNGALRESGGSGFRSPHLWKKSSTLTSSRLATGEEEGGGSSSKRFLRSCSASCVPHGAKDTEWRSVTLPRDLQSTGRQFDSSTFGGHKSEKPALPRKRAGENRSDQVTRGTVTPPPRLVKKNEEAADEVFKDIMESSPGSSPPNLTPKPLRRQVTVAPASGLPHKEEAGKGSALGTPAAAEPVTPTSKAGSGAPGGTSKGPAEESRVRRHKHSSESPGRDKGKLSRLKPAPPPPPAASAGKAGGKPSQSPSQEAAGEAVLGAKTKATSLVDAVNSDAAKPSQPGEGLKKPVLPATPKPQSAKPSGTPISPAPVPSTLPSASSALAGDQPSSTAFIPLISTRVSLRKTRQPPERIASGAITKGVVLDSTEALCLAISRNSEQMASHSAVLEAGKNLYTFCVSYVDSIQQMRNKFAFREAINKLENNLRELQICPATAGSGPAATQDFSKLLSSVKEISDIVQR
T2 sequence (P11274 whole entry, looked up, the tested form may be a part): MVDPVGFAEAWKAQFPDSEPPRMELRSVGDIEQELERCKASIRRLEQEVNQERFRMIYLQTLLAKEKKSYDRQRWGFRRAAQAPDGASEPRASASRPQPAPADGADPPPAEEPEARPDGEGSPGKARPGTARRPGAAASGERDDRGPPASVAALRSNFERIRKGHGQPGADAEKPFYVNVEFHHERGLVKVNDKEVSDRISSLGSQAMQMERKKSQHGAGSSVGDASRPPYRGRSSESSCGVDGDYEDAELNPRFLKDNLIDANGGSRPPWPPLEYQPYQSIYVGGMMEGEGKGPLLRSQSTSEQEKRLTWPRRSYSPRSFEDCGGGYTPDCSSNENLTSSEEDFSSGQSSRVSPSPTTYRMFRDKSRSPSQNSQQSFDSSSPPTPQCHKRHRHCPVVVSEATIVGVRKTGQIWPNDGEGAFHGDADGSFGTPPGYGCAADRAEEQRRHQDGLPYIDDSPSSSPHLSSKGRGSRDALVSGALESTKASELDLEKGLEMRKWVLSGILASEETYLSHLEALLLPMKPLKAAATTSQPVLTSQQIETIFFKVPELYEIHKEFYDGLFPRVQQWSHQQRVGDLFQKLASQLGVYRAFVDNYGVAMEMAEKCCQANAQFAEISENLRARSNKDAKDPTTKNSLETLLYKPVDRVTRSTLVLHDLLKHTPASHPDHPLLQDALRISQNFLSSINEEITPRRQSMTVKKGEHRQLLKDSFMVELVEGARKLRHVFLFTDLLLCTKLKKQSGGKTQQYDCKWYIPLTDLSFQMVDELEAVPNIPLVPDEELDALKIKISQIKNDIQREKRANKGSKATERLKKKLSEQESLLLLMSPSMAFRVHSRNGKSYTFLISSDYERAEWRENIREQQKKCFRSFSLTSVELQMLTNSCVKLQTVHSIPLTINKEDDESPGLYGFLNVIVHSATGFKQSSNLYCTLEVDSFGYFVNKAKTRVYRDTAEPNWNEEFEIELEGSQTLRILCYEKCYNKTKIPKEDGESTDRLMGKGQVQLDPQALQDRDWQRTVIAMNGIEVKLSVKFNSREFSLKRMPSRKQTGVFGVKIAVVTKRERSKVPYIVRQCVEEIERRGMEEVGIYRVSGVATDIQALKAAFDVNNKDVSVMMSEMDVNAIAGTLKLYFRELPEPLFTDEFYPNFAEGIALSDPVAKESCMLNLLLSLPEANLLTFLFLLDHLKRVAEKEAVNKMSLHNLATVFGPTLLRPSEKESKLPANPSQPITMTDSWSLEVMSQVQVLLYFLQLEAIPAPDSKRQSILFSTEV
T1 sequence (P00519 whole entry, looked up): as the sequence (P00519 whole entry, looked up, the tested form may be a part) above
T1 sequence (P11274 whole entry, looked up): as the sequence (P11274 whole entry, looked up, the tested form may be a part) above
T1 sequence (Q13490 whole entry, looked up): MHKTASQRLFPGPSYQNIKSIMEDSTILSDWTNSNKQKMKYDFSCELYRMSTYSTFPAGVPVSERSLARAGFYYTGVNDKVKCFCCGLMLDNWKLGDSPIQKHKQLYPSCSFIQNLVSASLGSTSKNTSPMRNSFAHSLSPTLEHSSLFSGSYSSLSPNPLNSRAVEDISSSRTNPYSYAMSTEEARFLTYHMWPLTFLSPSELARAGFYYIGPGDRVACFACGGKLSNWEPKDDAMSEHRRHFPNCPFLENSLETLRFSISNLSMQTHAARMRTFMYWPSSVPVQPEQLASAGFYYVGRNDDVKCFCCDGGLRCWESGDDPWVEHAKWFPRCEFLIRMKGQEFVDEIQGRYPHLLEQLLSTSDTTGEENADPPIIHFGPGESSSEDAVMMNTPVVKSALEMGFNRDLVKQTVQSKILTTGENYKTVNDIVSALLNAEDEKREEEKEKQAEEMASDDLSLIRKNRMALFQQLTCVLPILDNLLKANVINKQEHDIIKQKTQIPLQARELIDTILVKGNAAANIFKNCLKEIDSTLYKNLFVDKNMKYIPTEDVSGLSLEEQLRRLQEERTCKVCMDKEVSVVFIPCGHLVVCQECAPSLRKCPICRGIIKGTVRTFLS

Row | Activity [1] | Activity [2] | Activity [4] | Activity [5] | inhibition [7] | inhibition [8] | Activity [9] | inhibition [10] | Activity [11] | inhibition [12] | inhibition [13] | Activity [14] | inhibition [15] | SMILES | growth inhibition (GI) [3] | Activity [6]
1 | 14% | 8% | 77% | 94% | – | – | – | – | – | – | – | – | – | Cc1ccc(NC(=O)c2ccc(CNC(=O)CCCCCCCCCCNC(=O)[C@H](CC(C)C)NC(=O)[C@@H](O)[C@H](N)Cc3ccccc3)cc2)cc1Nc1nccc(-c2cccnc2)n1 | Active | –
2 | 105% | 81% | 121% | 113% | – | – | – | – | – | – | – | – | – | Cc1ccc(NC(=O)c2ccc(CNC(=O)CCCCNC(=O)[C@H](CC(C)C)NC(=O)[C@@H](O)[C@H](N)Cc3ccccc3)cc2)cc1Nc1nccc(-c2cccnc2)n1.Cl | – | 100%
3 | – | – | – | – | Active | Active | 99% | Active | – | – | – | – | – | COC(=O)[C@H](CC(C)C)NC(=O)[C@@H](O)[C@H](N)Cc1ccccc1 [BESTATIN METHYL ESTER] | – | –
4 | 23% | 3% | 59% | 17% | – | – | – | – | 27% | Active | Active | Dose-dependent effect | Active | Cc1ccc(NC(=O)c2ccc(CNC(=O)CCCCCCNC(=O)[C@H](CC(C)C)NC(=O)[C@@H](O)[C@H](N)Cc3ccccc3)cc2)cc1Nc1nccc(-c2cccnc2)n1.Cl | Active | –
